Experimental findings from US20190298717A1 (BOARD OF REGENTS, THE UNIVERSITY OF TEXAS SYSTEM, priority 2016, published 2019) are described below.

Data set [1] has as its system SH-SY5Y cells. As to the kind of experiment: MTT cell viability under H2O2 induced stress. It is filed as cell-based, human. The note with it: 100 μM H2O2 24 h; 10 and 25 μM compound; listed as hydralazine. Here is the method: To generate intracellular aldehydes, the inventors treated human neuroblastoma cell line (SH-SY5Y) with 100 μM hydrogen peroxide (H2O2) for 24 h. Carbonyl groups were quantified using 2,4-DNPH (dinitrophenylhydrazine) assay.
(§1) Cell Viability and Cytotoxicity Assay. Cell growth was analyzed using the MTT cell viability assay. Briefly, at the end of incubation/treatment, MTT reagent was diluted in culture medium and aliquoted into each well. After incubation for 2 hours, the medium was aspirated and DMSO was aliquoted into each well to disrupt the cells and dissolve the intracellular MTT dyes. Absorbance was read at 570 nm wavelength in a 96-well plate reader. Cell toxicity was detected using a LDH cell toxicity assay kit (Promega, Fitchburg Wis.). This is a coupled enzymatic assay that detects a visible color signal initially described by Nachlas et. al. The reagent contained excess concentrations of lactate and NAD+as substrates to drive the LDH reaction and produce NADH. In the presence of diaphorase, NADH drives the enzyme-catalyzed conversion of iodonitro-tetrazolium violet to a red formazan product. Briefly, DMEM medium was withdrawn from each well of the plate after treatment and briefly centrifuged to get rid of floating cells or cell debris. […] The absorbance was read at 490 nm in a 96-well plate reader. […]

The test system of data set [2] is Nrf2 knockdown SH-SY5Y cells. The conditions noted are these: Nrf2 siRNA knockdown, 24 h. Here is the method: GSH is regulated by the rate-limiting enzyme GCL consisted of GCLc and GCLm subunits. […] The inventors then used extracellular lactate dehydrogenase cytotoxicity assay to measure cell survival.
as §1

The next data set deals with C. elegans. Here is the method:
Measurement of Reactive Oxygen Species. Superoxide concentration was measured by dihydroethidium (DHE). Black clear bottom 96 well plates were seeded with about 5000 HEK293 tau aggregate-negative (control) and aggregate-positive model cells per well and about 20000 SH-SY5Y cells (the NRF2 knockdown of both cell lines were also seeded). […] Fluorescence was measured by Spectramax Gemini XPS plate reader (Molecular Devices, Sunnyvale, Calif.) at 370 nm excitation and 420 nm emission wavelengths. […] Equal number of animals were transferred to a black bottom 96 well plate and fluorescence was measured same as above.

Data set [3] concerns SH-SY5Y cells. Here is the method:
Viability of the cells was measured by Cell Titer Glo after 24 and 48 hours of treatments. […] Values are presented as mean±SDE (*p<0.05, **p<0.01).
SH-SY5Y neuroblastoma cells were treated with doxorubicin (0.2 μM), a cytotoxic compound that depletes the NAD pool of the cells and changes morphological features that mimic neurodegeneration such as loss of neuritis (8, 9).

For data set [4], the system named is HEK293 overexpressing mutated tau-RD (P301L/V337M), Clone 9. The note with it: 10 μM, 48 h. How it is done: Two monoclonal cell lines of HEK293 overexpressing mutated tau-RD (repetitive domain; P301L/V337M) were selected; 1) Clone 1: used as control expressing truncated tau from amino acid 244 to 372, with P301L/V337M mutations which produces soluble non-toxic tau, and 2) Clone 9: which generates an aggregated form of tau (11). Three parameters were measured: cell viability, NAD, and ATP content.

The subject of data set [5] is GSK3β and Tau. Here is the method:
(§2) The data represents as percent cell viability normalized to DMSO treated control cells. The values are mean percent of two biological experiments performed in six replicates. […] After treatment Western blot analysis was performed to check the levels of p-GSK3β and total GSK3β in addition to p-Tau and total Tau level. […] Densitometry values were normalized using actin as internal control. All western blot analysis (FIG. 19B, 19C) values are mean±SD from three biological independent experiments (shown in the right panel).
(§3) To mimic the cellular environment of AD disease a stable HEK293 cell line (HEKTauP301S) overexpressing mutated full length Tau (P301S) was used.

In a further data set the test system is HEKTauP301S cells. The note with it: 20 μM Aβ (1-42), 5 and 10 μM, 24 hours. Here is the method: as §2, §3
Another data set concerns Nrf2 pathway. The conditions noted are these: SH-SY5Y, 10 μM, 24 h.
The conditions of data set [6]: data not shown.
For data set [7], the system named is GSK3β and Tau. As to the kind of experiment: p-GSK3β (S9) and p-Tau (S396) Western blot. The note with it: 10 μM, 24 hours. For orientation: A western blot detects proteins with antibodies after separation by electrophoresis.
Protocol: Densitometry values were normalized against actin. […] The levels of p-Tau and total Tau were measured by Western blot analysis. […] Densitometry values were normalized to actin using Image J software. All of the western blot quantification values (shown in the right panel) are mean±SD from two technical replicates (n=2).
A known GSK3β inhibitor LiCl (lithium chloride) (10 mM) was used as a positive control [9]. After the treatment, cells were lysed and equal amounts of total lysate were resolved on SDS-PAGE for western blot analysis using phospho-GSK3β (S9) (phosphorylation at this residue reduces the GSK3β kinase activity) and pTau antibodies [12,13]. […] The inventors analyzed the level of Tau phosphorylation at S396 (FIG. 18C).
In data set [8] the test system is GSK3β and Tau. Kind of data set: p-GSK3β and p-Tau in Aβ (1-42) treated primary neurons. The conditions noted are these: 1 μM, 24 hours.
Protocol: Cells were transfected with tdTomato (red) plasmid to visualize structural and morphological changes of neurons. Nuclei were stained with DAPI (blue) scale bar=10 μm. […] Densitometry values were normalized using actin as an internal control.
Immunofluorescence assays were performed and the phosphorylation status of GSK3β and Tau proteins were analyzed in primary cells using pGSK3β (S9) and pTau (S396) antibodies. Primary cortical neurons were isolated from the cortex of 0 day pups, cultured for two weeks, and were transfected with tdTomato plasmid to visualize structural and morphological changes of neurons. […] At the end of the treatment cells were fixed and immunostained with respective antibodies.
The mark [9] stands for this setting: HEKTauP301S, 500 nM Aβ (1-42), 10 μM, 24 hours.

“Also recorded” adds a separate entry of the source.

Protocol for Nrf2 pathway: Cell culture in SILAC media and Lysate Preparation. SHY-SY5Y cells were grown in Dulbecco's modified Eagle's medium containing either unlabeled L-Proline, L-arginine (Argo) and L-lysine (Lyso) or L-Proline, heavy isotope-labeled L-arginine-^13C6^14N4(Arg^10) and L-lysine-^13C6-^15N2 (Lys^8) (Cambridge Isotope Laboratories, Inc.) supplemented with 10% dialyzed fetal bovine serum (Thermo Fischer, Waltham, Mass.). […] After treatment, cells were harvested by trypisinization, washed three times with cold PBS and lysed in a buffer containing 6M Urea, 2M Thio-urea, 1% SDS and 100 mM Tris/HCl, pH 8.0 with protease (Thermo Fischer, Waltham, Mass.) and phosphatase inhibitors. After incubation for 15 min at RT and sonication, the samples were clarified by centrifugation for 15 min at 20,000×g. Protein content was determined using the 660 nM protein assay kit (Thermo Fisher, Waltham, Mass.) according to the manufacturer's instructions.
Protein Digestion and Peptide Fractionation. […] The mix digest (300 μg) was then fractionated into six fractions via strong cation exchange (SCX). […]
Mass Spectrometry for SILAC. All the fractions were analyzed using a Q-Exactive HF mass spectrometer (Thermo Electron, Burlingame, Calif.) coupled to an Ultimate 3000 RSLCnano HPLC systems (Thermo Electron, Sunnyvale Calif.). […]

Take `NNc1nncc2ccccc12` [Hydralazine]: in the data set on SH-SY5Y cells [1], the “cell viability under H2O2 induced cell death (MTT)” value is on record as “significantly improved; also recorded: provided protection in a dose-dependent manner”. Besides, in [2], the “protection from H2O2-induced cytotoxicity in Nrf2 knockdown cells (LDH)” value is given as “no protection”. In addition, the “superoxide concentration in N2 worms” value with C. elegans was “decreased superoxide concentration”. The “increase of NAD level of untreated cell” value with SH-SY5Y cells [3] (48 hours) amounted to 50%. Also, in the data set on SH-SY5Y cells [3] (doxorubicin 0.2 μM), the “NAD level in doxorubicin treated cells” value was “significant effect on restoring NAD level”. The “protection against doxorubicin induced cell death” value in the data set with SH-SY5Y cells [3] (doxorubicin 0.2 μM, 0, 10, 20 μM, 24 and 48 hours) was “protects cells in a dose-dependent manner”. Further, the “cell viability, NAD, and ATP content of Clone 9” value in data set [4] is on record as “shows improvement in all three aspects”. The “phosphorylation level of GSK3β in control HEK293 cells” value in the data set with GSK3β and Tau [5] (HEKT293 cells as control) was “not able to detect a significant upregulation”. Also, in the data set on GSK3β and Tau [5] (setting [9]), the “Aβ-induced Tau phosphorylation” value is listed as “inhibits Aβ-induced Tau phosphorylation” and the “phosphorylation of GSK3β” value is on record as “upregulates the phosphorylation of GSK3β”. In the data set on HEKTauP301S cells, the “viability under Aβ (1-42)-induced toxicity” value is given as “protects Tau-overexpressing cells”. Moreover, in the data set on Nrf2 pathway, the “Nrf2 pathway activation, IPA Z score” value stood at 0.156. Further, the “pro-oxidant environment (DCFH-DA intensity)” value in [6] is “does not create a mild pro-oxidant environment”. Also, the “Tau phosphorylation at S396, compared to positive control LiCl” value with GSK3β and Tau [7] is given as “reduces the hyper-phosphorylation of Tau even more”. Also, in the data set with GSK3β and Tau [8], the “pGSK3β (S9) in primary cells” value is reported as “marked increase” and the “pTau in primary cells” value is “reduced level of pTau”.
